In PubChem BioAssay AID2060327 (Molecular Pharmacology Branch, DTP, NCI, 2025):
pIC50: −log10 of the molar value.

Test system: PC-3 multi-cell spheroids, viability
Assay: Anticancer human tumor PC-3 cell line growth inhibition [IpAb];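 note: spheroids exposed to compounds for 7 days before readout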;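 for viability, T/C: 100% = DMSO vehicle control wells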
Conditions: for pIC50: curve of first compound; for viability, T/C: stronger effect = lower value
Outline: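 Multi-cell spheroids of 60% tumour cells, 25% HUVEC and 15% MSC in ultra-low-attachment U-bottom wells, treated with agents combined with ipatasertib or abemaciclib. Half-log ranges top out near clinical Cmax, or 10 microM when Cmax is unknown.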

[1] = second compound 0.01 µM, first compound 0.00949 µM
[2] = second compound 0.01 µM, first compound 0.03 µM
[3] = second compound 0.01 µM, first compound 0.0949 µM
[4] = second compound 0.01 µM, first compound 0.3 µM
[5] = second compound 0.0316 µM, first compound 0.00949 µM
[6] = second compound 0.0316 µM, first compound 0.03 µM
[7] = second compound 0.0316 µM, first compound 0.0949 µM
[8] = second compound 0.0316 µM, first compound 0.3 µM
[9] = second compound 0.1 µM, first compound 0.00949 µM
[10] = second compound 0.1 µM, first compound 0.03 µM
[11] = second compound 0.1 µM, first compound 0.0949 µM
[12] = second compound 0.1 µM, first compound 0.3 µM
[13] = second compound 0.316 µM, first compound 0.00949 µM
[14] = second compound 0.316 µM, first compound 0.03 µM
[15] = second compound 0.316 µM, first compound 0.0949 µM
[16] = second compound 0.316 µM, first compound 0.3 µM
[17] = second compound 1 µM, first compound 0.00949 µM
[18] = second compound 1 µM, first compound 0.03 µM
[19] = second compound 1 µM, first compound 0.0949 µM
[20] = second compound 1 µM, first compound 0.3 µM

| SMILES | pIC50 (second compound 0.01 µM) | pIC50 (second compound 0.0316 µM) | pIC50 (second compound 0.1 µM) | pIC50 (second compound 0.316 µM) | pIC50 (second compound 1 µM) | viability, T/C [1] | viability, T/C [2] | viability, T/C [3] | viability, T/C [4] | viability, T/C [5] | viability, T/C [6] | viability, T/C [7] | viability, T/C [8] | viability, T/C [9] | viability, T/C [10] | viability, T/C [11] | viability, T/C [12] | viability, T/C [13] | viability, T/C [14] | viability, T/C [15] | other results |
| --- | --- | --- | --- | --- | --- | --- | --- | --- | --- | --- | --- | --- | --- | --- | --- | --- | --- | --- | --- | --- | --- |
| Cn1cnc2c(F)c(Nc3ccc(Br)cc3Cl)c(C(=O)NOCCO)cc21 + CCN1CCN(Cc2ccc(Nc3ncc(F)c(-c4cc(F)c5nc(C)n(C(C)C)c5c4)n3)nc2)CC1 | < 5.52 | 5.71 | 5.80 | 6.23 | 7.53 | 95% | 86.2% | 91.7% | 87.7% | 74.1% | 72.1% | 62.2% | 71.8% | 56% | 58.3% | 58.2% | 49.2% | 60.2% | 50.5% | 53.6% | viability, T/C (second compound 0.01 µM, first compound 0.949 µM): 79.7%; viability, T/C (second compound 0.01 µM, first compound 3 µM): 59.8%; viability, T/C (second compound 0.0316 µM, first compound 0.949 µM): 57%; viability, T/C (second compound 0.0316 µM, first compound 3 µM): 45%; viability, T/C (second compound 0.1 µM, first compound 0.949 µM): 53.7%; viability, T/C (second compound 0.1 µM, first compound 3 µM): 47.8%; viability, T/C [16]: 54.6%; viability, T/C (second compound 0.316 µM, first compound 0.949 µM): 48.1%; viability, T/C (second compound 0.316 µM, first compound 3 µM): 41.5%; viability, T/C [17]: 53.2%; viability, T/C [18]: 47.3%; viability, T/C [19]: 42.6%; viability, T/C [20]: 52.1%; viability, T/C (second compound 1 µM, first compound 0.949 µM): 57.2%; viability, T/C (second compound 1 µM, first compound 3 µM): 36.5% |
| CC(=O)c1c(C)c2cnc(Nc3ccc(N4CCNCC4)cn3)nc2n(C2CCCC2)c1=O + CCN1CCN(Cc2ccc(Nc3ncc(F)c(-c4cc(F)c5nc(C)n(C(C)C)c5c4)n3)nc2)CC1 | < 6.52 | < 6.52 | < 6.52 | < 6.52 | < 6.52 | 70.7% | 61.7% | 62% | 56.6% | 53.7% | 53.7% | 56.4% | 59.8% | 52.9% | 53.7% | 57.9% | 55.4% | 63.1% | 64.9% | 65.5% | viability, T/C (second compound 0.01 µM, first compound 0.000949 µM): 79.2%; viability, T/C (second compound 0.01 µM, first compound 0.003 µM): 68.6%; viability, T/C (second compound 0.0316 µM, first compound 0.000949 µM): 49.9%; viability, T/C (second compound 0.0316 µM, first compound 0.003 µM): 57.3%; viability, T/C (second compound 0.1 µM, first compound 0.000949 µM): 53.5%; viability, T/C (second compound 0.1 µM, first compound 0.003 µM): 53.9%; viability, T/C (second compound 0.316 µM, first compound 0.000949 µM): 60%; viability, T/C (second compound 0.316 µM, first compound 0.003 µM): 56.8%; viability, T/C [16]: 60.9%; viability, T/C (second compound 1 µM, first compound 0.000949 µM): 58.1%; viability, T/C (second compound 1 µM, first compound 0.003 µM): 60.2%; viability, T/C [17]: 57.3%; viability, T/C [18]: 57.5%; viability, T/C [19]: 51.2%; viability, T/C [20]: 55.1% |
